In PubChem BioAssay AID2060329 (Molecular Pharmacology Branch, DTP, NCI, 2025):

Tested on: MCF7 multi-cell spheroids with HUVEC/MSC, viability
Assay: Anticancer human tumor MCF7 cell line growth inhibition [IpAb];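 further: spheroids exposed to agents for seven days before readout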
Settings: for IC50: curve of first compound; for viability, T/C: stronger effect = lower value; active means viability on the fitted dose curve at most 10% of control; inactive means the rest
Summary of the method: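 Multi-cell spheroids of 60% tumour cells, 25% HUVEC and 15% MSC in ultra-low-attachment U-bottom wells, treated with agents combined with ipatasertib or abemaciclib. Half-log ranges top out near clinical Cmax, or 10 microM when Cmax is unknown.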

[1] = second compound 0.01 µM, first compound 0.0316 µM
[2] = second compound 0.01 µM, first compound 0.1 µM
[3] = second compound 0.01 µM, first compound 0.316 µM
[4] = second compound 0.01 µM, first compound 1 µM
[5] = second compound 0.01 µM, first compound 3.16 µM
[6] = second compound 0.01 µM, first compound 10 µM
[7] = second compound 0.0316 µM, first compound 0.0316 µM
[8] = second compound 0.0316 µM, first compound 0.1 µM
[9] = second compound 0.0316 µM, first compound 0.316 µM
[10] = second compound 0.0316 µM, first compound 1 µM
[11] = second compound 0.0316 µM, first compound 3.16 µM
[12] = second compound 0.0316 µM, first compound 10 µM
[13] = second compound 0.1 µM, first compound 0.0316 µM
[14] = second compound 0.1 µM, first compound 0.1 µM
[15] = second compound 0.1 µM, first compound 0.316 µM
[16] = second compound 0.1 µM, first compound 1 µM
[17] = second compound 0.1 µM, first compound 3.16 µM
[18] = second compound 0.1 µM, first compound 10 µM
[19] = second compound 0.316 µM, first compound 0.0316 µM
[20] = second compound 0.316 µM, first compound 0.1 µM
[21] = second compound 0.316 µM, first compound 0.316 µM
[22] = second compound 0.316 µM, first compound 1 µM
[23] = second compound 0.316 µM, first compound 3.16 µM
[24] = second compound 0.316 µM, first compound 10 µM
[25] = second compound 1 µM, first compound 0.0316 µM
[26] = second compound 1 µM, first compound 0.1 µM
[27] = second compound 1 µM, first compound 0.316 µM
[28] = second compound 1 µM, first compound 1 µM
[29] = second compound 1 µM, first compound 3.16 µM
[30] = second compound 1 µM, first compound 10 µM
[31] = second compound 0.01 µM, first compound 0.00949 µM
[32] = second compound 0.01 µM, first compound 0.03 µM
[33] = second compound 0.01 µM, first compound 0.0949 µM
[34] = second compound 0.01 µM, first compound 0.3 µM
[35] = second compound 0.0316 µM, first compound 0.00949 µM
[36] = second compound 0.0316 µM, first compound 0.03 µM
[37] = second compound 0.0316 µM, first compound 0.0949 µM
[38] = second compound 0.0316 µM, first compound 0.3 µM
[39] = second compound 0.1 µM, first compound 0.00949 µM
[40] = second compound 0.1 µM, first compound 0.03 µM
[41] = second compound 0.1 µM, first compound 0.0949 µM
[42] = second compound 0.1 µM, first compound 0.3 µM
[43] = second compound 0.316 µM, first compound 0.00949 µM
[44] = second compound 0.316 µM, first compound 0.03 µM
[45] = second compound 0.316 µM, first compound 0.0949 µM
[46] = second compound 0.316 µM, first compound 0.3 µM
[47] = second compound 1 µM, first compound 0.00949 µM
[48] = second compound 1 µM, first compound 0.03 µM
[49] = second compound 1 µM, first compound 0.0949 µM
[50] = second compound 1 µM, first compound 0.3 µM

C=CC(=O)N1CCN(c2nc(=O)n(-c3c(C)ccnc3C(C)C)c3nc(-c4c(O)cccc4F)c(F)cc23)C(C)C1 (stereo not given) + CCN1CCN(Cc2ccc(Nc3ncc(F)c(-c4cc(F)c5nc(C)n(C(C)C)c5c4)n3)nc2)CC1
6470 nM: IC50 (second compound 1 µM)
> 10000 nM: IC50 (second compound 0.01 µM) | IC50 (second compound 0.0316 µM) | IC50 (second compound 0.1 µM) | IC50 (second compound 0.316 µM)
inactive: viability, T/C [1] 97.6% | viability, T/C [2] 95.6% | viability, T/C [3] 112% | viability, T/C [4] 98.4% | viability, T/C [5] 91.4% | viability, T/C [6] 58.8% | viability, T/C [7] 98.5% | viability, T/C [8] 94.7% | viability, T/C [9] 102% | viability, T/C [10] 110% | viability, T/C [11] 76.9% | viability, T/C [12] 48.3% | viability, T/C [13] 117% | viability, T/C [14] 107% | viability, T/C [15] 118% | viability, T/C [16] 101% | viability, T/C [17] 84.4% | viability, T/C [18] 59.4% | viability, T/C [19] 106% | viability, T/C [20] 106% | viability, T/C [21] 111% | viability, T/C [22] 94.8% | viability, T/C [23] 70.7% | viability, T/C [24] 50.9% | viability, T/C [25] 100% | viability, T/C [26] 101% | viability, T/C [27] 96.4% | viability, T/C [28] 78.9% | viability, T/C [29] 62% | viability, T/C [30] 43.1%

CC(=O)c1c(C)c2cnc(Nc3ccc(N4CCNCC4)cn3)nc2n(C2CCCC2)c1=O + CCN1CCN(Cc2ccc(Nc3ncc(F)c(-c4cc(F)c5nc(C)n(C(C)C)c5c4)n3)nc2)CC1
inactive: viability, T/C (second compound 0.01 µM, first compound 0.000949 µM) 93.2% | viability, T/C (second compound 0.01 µM, first compound 0.003 µM) 99.5% | viability, T/C [31] 103% | viability, T/C [32] 104% | viability, T/C [33] 97.4% | viability, T/C [34] 93.6% | viability, T/C (second compound 0.0316 µM, first compound 0.000949 µM) 101% | viability, T/C (second compound 0.0316 µM, first compound 0.003 µM) 95.4% | viability, T/C [35] 90.6% | viability, T/C [36] 93.3% | viability, T/C [37] 93% | viability, T/C [38] 94.1% | viability, T/C (second compound 0.1 µM, first compound 0.000949 µM) 93.9% | viability, T/C (second compound 0.1 µM, first compound 0.003 µM) 104% | viability, T/C [39] 88.3% | viability, T/C [40] 99.3% | viability, T/C [41] 92.8% | viability, T/C [42] 86.7% | viability, T/C (second compound 0.316 µM, first compound 0.000949 µM) 95% | viability, T/C (second compound 0.316 µM, first compound 0.003 µM) 90.9% | viability, T/C [43] 96.6% | viability, T/C [44] 92.1% | viability, T/C [45] 97% | viability, T/C [46] 85.5% | viability, T/C (second compound 1 µM, first compound 0.000949 µM) 82.7% | viability, T/C (second compound 1 µM, first compound 0.003 µM) 94.5% | viability, T/C [47] 79.8% | viability, T/C [48] 79.8% | viability, T/C [49] 87.1% | viability, T/C [50] 92.2%
> 300 nM: IC50 (second compound 0.01 µM) | IC50 (second compound 0.0316 µM) | IC50 (second compound 0.1 µM) | IC50 (second compound 0.316 µM) | IC50 (second compound 1 µM)

CC(C)(C)c1cnc(CSc2cnc(NC(=O)C3CCNCC3)s2)o1 + CCN1CCN(Cc2ccc(Nc3ncc(F)c(-c4cc(F)c5nc(C)n(C(C)C)c5c4)n3)nc2)CC1
17.2 nM: IC50 (second compound 1 µM)
inactive: viability, T/C [31] 112% | viability, T/C [32] 93% | viability, T/C [33] 38.9% | viability, T/C [34] 23.7% | viability, T/C (second compound 0.01 µM, first compound 0.949 µM) 27.4% | viability, T/C (second compound 0.01 µM, first compound 3 µM) 29.8% | viability, T/C [35] 102% | viability, T/C [36] 97.8% | viability, T/C [37] 29.4% | viability, T/C [38] 19.5% | viability, T/C (second compound 0.0316 µM, first compound 0.949 µM) 26.8% | viability, T/C (second compound 0.0316 µM, first compound 3 µM) 27.6% | viability, T/C [39] 108% | viability, T/C [40] 99.7% | viability, T/C [41] 25% | viability, T/C [42] 21.7% | viability, T/C (second compound 0.1 µM, first compound 0.949 µM) 26.9% | viability, T/C (second compound 0.1 µM, first compound 3 µM) 27.2% | viability, T/C [43] 94.5% | viability, T/C [44] 72.3% | viability, T/C [45] 21.3% | viability, T/C [46] 22.3% | viability, T/C (second compound 0.316 µM, first compound 0.949 µM) 27.1% | viability, T/C (second compound 0.316 µM, first compound 3 µM) 30.4% | viability, T/C [47] 63% | viability, T/C [48] 37.8% | viability, T/C [49] 19.6% | viability, T/C [50] 22.8% | viability, T/C (second compound 1 µM, first compound 0.949 µM) 27.5% | viability, T/C (second compound 1 µM, first compound 3 µM) 32%
67 nM: IC50 (second compound 0.0316 µM)
51.8 nM: IC50 (second compound 0.316 µM)
64.7 nM: IC50 (second compound 0.1 µM)
74.4 nM: IC50 (second compound 0.01 µM)

Cn1nccc1Nc1nccc(-c2ccn(C(CO)c3ccc(Cl)c(F)c3)c(=O)c2)n1 (stereo not given) + CCN1CCN(Cc2ccc(Nc3ncc(F)c(-c4cc(F)c5nc(C)n(C(C)C)c5c4)n3)nc2)CC1
> 10000 nM: IC50 (second compound 0.01 µM) | IC50 (second compound 0.0316 µM) | IC50 (second compound 0.1 µM) | IC50 (second compound 0.316 µM) | IC50 (second compound 1 µM)
inactive: viability, T/C [1] 107% | viability, T/C [2] 113% | viability, T/C [3] 115% | viability, T/C [4] 126% | viability, T/C [5] 143% | viability, T/C [6] 104% | viability, T/C [7] 105% | viability, T/C [8] 116% | viability, T/C [9] 128% | viability, T/C [10] 136% | viability, T/C [11] 138% | viability, T/C [12] 62.1% | viability, T/C [13] 116% | viability, T/C [14] 129% | viability, T/C [15] 139% | viability, T/C [16] 136% | viability, T/C [17] 139% | viability, T/C [18] 74.8% | viability, T/C [19] 119% | viability, T/C [20] 115% | viability, T/C [21] 131% | viability, T/C [22] 143% | viability, T/C [23] 133% | viability, T/C [24] 95% | viability, T/C [25] 126% | viability, T/C [26] 125% | viability, T/C [27] 123% | viability, T/C [28] 148% | viability, T/C [29] 145% | viability, T/C [30] 113%
